The molecules below were run against DLK (Homo sapiens (Human), UniProt Q12852) (assay: DLK TR-FRET Inhibition Assay). Conditions: N-terminally GST-tagged DLK (catalytic domain amino acid 1-520), MKK4 K131M substrate, 30 μM ATP; read-out: DLK HTRF Ki.
Assay type: biochemical
Method: DLK kinase reactions (20 μL) containing 5 nM N-terminally GST-tagged DLK (catalytic domain amino acid 1-520) (Carna Bioscience), 40 nM N-terminally HIS tagged MKK4 K131M substrate, and 30 μM ATP in kinase reaction buffer (50 mM HEPES, pH 7.5, 0.01% Triton X-100, 0.01% Bovine γ-Globulins, 2 mM DTT, 10 mM MgCl2 and 1 mM EGTA), and testing compound 1:3 serial diluted starting at 20 uM were incubated at ambient temperature for 60 minutes in 384 well OptiPlate (Perkin Elmer). To quench kinase reactions and detect phosphorylated MKK4, 15 μL of TR-FRET antibody mixture containing 2 nM anti-phosphorylated MKK4 labeled with Europium cryptate (Cisbio) and 23 nM anti-HIS labeled with D2 (Cisbio) in detection buffer (25 mM Tris pH 7.5, 100 mM NaCl, 100 mM EDTA, 0.01% Tween-20, and 200 mM KF) was added to the reaction mixture. The detection mixture was incubated for 3 hours at ambient temperature and the TR-FRET was detected with an EnVision multilabel plate reader (Perkin-Elmer) using the LANCE/DELFIA Dual Enh label from Perkin-Elmer (excitation filter: UV2 (TRF) 320 and emission filters: APC 665 and Europium 615).

Chain of DLK (Q12852 1-520): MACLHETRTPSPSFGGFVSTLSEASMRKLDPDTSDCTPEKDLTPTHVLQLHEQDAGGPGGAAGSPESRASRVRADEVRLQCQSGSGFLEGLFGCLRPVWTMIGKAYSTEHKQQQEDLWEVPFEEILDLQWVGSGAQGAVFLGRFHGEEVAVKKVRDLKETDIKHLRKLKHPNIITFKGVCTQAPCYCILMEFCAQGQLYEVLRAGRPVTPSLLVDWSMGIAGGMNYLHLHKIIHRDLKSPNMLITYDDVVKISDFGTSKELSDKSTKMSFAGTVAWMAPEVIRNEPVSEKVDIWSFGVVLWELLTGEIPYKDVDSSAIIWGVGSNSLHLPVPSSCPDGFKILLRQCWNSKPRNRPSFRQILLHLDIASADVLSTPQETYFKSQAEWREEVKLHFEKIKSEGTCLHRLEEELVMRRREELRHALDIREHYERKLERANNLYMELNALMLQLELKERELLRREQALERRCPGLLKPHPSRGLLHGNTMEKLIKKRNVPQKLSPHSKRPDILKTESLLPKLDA

| SMILES | Ki [nM] |
| --- | --- |
| CC1(C)OCCn2c1nc1c(N3C[C@H]4CCC(F)(F)[C@H]4C3)nc(-c3cnc(N)nc3)nc12 (racemic) [Example 15, (±)-5-(4-((cis)-4,4-difluorohexahydrocyclopenta[c]-pyrrol-2(1H)-yl)-6,6-dimethyl-8,9-dihydro-6H-[1,4]oxazino[4,3-e]purin-2-yl)pyrimidin-2-amine] | 360 |
| CC[C@@]1(C)OCCn2c1nc1c(N3CC4CC3C4)nc(-c3cnc(N)nc3)nc12 (single isomer, unassigned) [Example 93] | 131 |
| CC[C@]1(C)OCCn2c1nc1c(N3CC4CC3C4)nc(-c3cnc(N)nc3)nc12 (single isomer, unassigned) [Example 94] | 281 |
| C[C@@H]1COC(C)(C)c2nc3c(N4CC5CC4C5)nc(-c4cnc(N)nc4)nc3n21 (single isomer, unassigned) [Example 96] | 42 |
| C[C@H]1COC(C)(C)c2nc3c(N4CC5CC4C5)nc(-c4cnc(N)nc4)nc3n21 (single isomer, unassigned) [Example 97] | 62 |
| Nc1ncc(-c2nc(N3CC4CC3C4)c3nc4n(c3n2)CCO[C@H]4C(F)(F)F)cn1 (single isomer, unassigned) [Example 98] | 93.8 |
| Nc1ncc(-c2nc(N3CC4CC3C4)c3nc4n(c3n2)CCO[C@@H]4C(F)(F)F)cn1 (single isomer, unassigned) [Example 99] | 866 |
| C[C@@H]1COC(C)(C)c2nc3c(C4CC4)nc(-c4cnc(N)nc4)nc3n21 (single isomer, unassigned) [Example 101] | 102 |
| C[C@H]1COC(C)(C)c2nc3c(C4CC4)nc(-c4cnc(N)nc4)nc3n21 (single isomer, unassigned) [Example 102] | 157 |
| C[C@]1(C2CC2)OCCn2c1nc1c(C3CC3)nc(-c3cnc(N)nc3)nc12 (single isomer, unassigned) [Example 105] | 211 |
| C[C@@]1(C2CC2)OCCn2c1nc1c(C3CC3)nc(-c3cnc(N)nc3)nc12 (single isomer, unassigned) [Example 106] | 385 |
| C[C@@H]1OCCn2c1nc1c(N3CC4CC3C4)nc(-c3cnc(N)nc3)nc12 (single isomer, unassigned) [Example 107] | 59.7 |
| C[C@H]1OCCn2c1nc1c(N3CC4CC3C4)nc(-c3cnc(N)nc3)nc12 (single isomer, unassigned) [Example 108] | 239 |
| C[C@@H]1Cn2c(nc3c(N4CC5CC4C5)nc(-c4cnc(N)nc4)nc32)C(C)(C)O1 (single isomer, unassigned) [Example 138] | 82.5 |
| C[C@H]1Cn2c(nc3c(N4CC5CC4C5)nc(-c4cnc(N)nc4)nc32)C(C)(C)O1 (single isomer, unassigned) [Example 139] | 149 |
| CO[C@@H]1CC2CC1CN2c1nc(-c2cnc(N)nc2)nc2c1nc1n2CCOC1(C)C (single isomer, unassigned) [Example 140] | 72.7 |
| CO[C@H]1CC2CC1CN2c1nc(-c2cnc(N)nc2)nc2c1nc1n2CCOC1(C)C (single isomer, unassigned) [Example 141] | 392 |
| CC1(C)OCCn2c1nc1c(N3CC4CC3C[C@H]4F)nc(-c3cnc(N)nc3)nc12 (single isomer, unassigned) [Example 142] | 216 |
| CC1(C)OCCn2c1nc1c(N3CC4CC3C[C@@H]4F)nc(-c3cnc(N)nc3)nc12 (single isomer, unassigned) [Example 143] | 223 |
| COCC1CCCN1c1nc(-c2cnc(N)nc2)nc2c1nc1n2CCOC1(C)C (stereo not drawn) [Example 1, 5-(4-(2-(methoxymethyl)pyrrolidin-1-yl)-6,6-dimethyl-8,9-dihydro-6H-[1,4]oxazino[4,3-e]purin-2-yl)pyrimidin-2-amine] | 392 |

| SMILES | Ki [nM] |
| --- | --- |
| CC1(C)OCCn2c1nc1c(N3CC(F)C3)nc(-c3cnc(N)nc3)nc12 [Example 2, 5-[1-(3-Fluoro-azetidin-1-yl)-8,8-dimethyl-5,6-dihydro-8H-7-oxa-2,4,4b,9-tetraaza-fluoren-3-yl]-pyrimidin-2-ylamine] | 391 |
| Cc1c[nH]c2ncc(-c3nc(N4CC5CC4C5)c4nc5n(c4n3)CCOC5(C)C)cc12 [Example 3, 1-(2-Aza-bicyclo[2.2.1]hex-2-yl)-8,8-dimethyl-3-(3-methyl-1H-pyrrolo[2,3-b]pyridin-5-yl)-5,6-dihydro-8H-7-oxa-2,4,4b,9-tetraaza-fluorene] | 4.92 |
| Cc1c[nH]c2ncc(-c3nc(N4CC(F)C4)c4nc5n(c4n3)CCOC5(C)C)cc12 [Example 4, 1-(3-Fluoro-azetidin-1-yl)-8,8-dimethyl-3-(3-methyl-1H-pyrrolo[2,3-b]pyridin-5-yl)-5,6-dihydro-8H-7-oxa-2,4,4b,9-tetraaza-fluorene] | 9.74 |
| CC1(C)OCCn2c1nc1c(N3CC4CC4C3)nc(-c3cnc(N)nc3)nc12 (stereo not drawn) [Example 5, 5-[1-(3-Aza-bicyclo[3.1.0]hex-3-yl)-8,8-dimethyl-5,6-dihydro-8H-7-oxa-2,4,4b,9-tetraaza-fluoren-3-yl]-pyrimidin-2-ylamine] | 328 |
| CC1(C)OCCn2c1nc1c(N3C[C@@H]4CC(F)(F)C[C@@H]4C3)nc(-c3cnc(N)nc3)nc12 [Example 6] | 727 |
| CC1(C)OCCn2c1nc1c(N3CCC4CC43)nc(-c3cnc(N)nc3)nc12 (stereo not drawn) [Example 7, 5-[1-(2-Aza-bicyclo[3.1.0]hex-2-yl)-8,8-dimethyl-5,6-dihydro-8H-7-oxa-2,4,4b,9-tetraaza-fluoren-3-yl]-pyrimidin-2-ylamine] | 199 |
| CC1(C)OCCn2c1nc1c(N3CCC4(COC4)C3)nc(-c3cnc(N)nc3)nc12 [Example 8, 5-[8,8-Dimethyl-1-(2-oxa-6-aza-spiro[3.4]oct-6-yl)-5,6-hydro-8H-7-oxa-2,4,4b,9-tetraaza-fluoren-3-yl]-pyrimidin-2-ylamine] | 469 |
| CC1(C)OCCn2c1nc1c(N3CC4CC(F)(F)C4C3)nc(-c3cnc(N)nc3)nc12 (stereo not drawn) [Example 10, 5-[1-(6,6-Difluoro-3-aza-bicyclo[3.2.0]hept-3-yl)-8,8-dimethyl-5,6-dihydro-8H-7-oxa-2,4,4b,9-tetraaza-fluoren-3-yl]-pyrimidin-2-ylamine] | 157 |
| CC1(C)OCCn2c1nc1c(N3CC4CC3CC4(F)F)nc(-c3cnc(N)nc3)nc12 (stereo not drawn) [Example 11] | 262 |
| CC1(C)OCCn2c1nc1c(N3CCC4(CCOC4)C3)nc(-c3cnc(N)nc3)nc12 (stereo not drawn) [Example 12, 5-[8,8-Dimethyl-1-(2-oxa-7-aza-spiro[4.4]non-7-yl)-5,6-dihydro-8H-7-oxa-2,4,4b,9-tetraaza-fluoren-3-yl]-pyrimidin-2-ylamine] | 584 |
| CC1(C)OCCn2c1nc1c(N3CC4CCOC4C3)nc(-c3cnc(N)nc3)nc12 (stereo not drawn) [Example 14, 5-[1-(Hexahydro-furo[2,3-c]pyrrol-5-yl)-8,8-dimethyl-5,6-dihydro-8H-7-oxa-2,4,4b,9-tetraaza-fluoren-3-yl]-pyrimidin-2-ylamine] | 990 |
| CC1(C)OCCn2c1nc1c(N3CCCC34CCOC4)nc(-c3cnc(N)nc3)nc12 (stereo not drawn) [Example 16, 5-[8,8-Dimethyl-1-(7-oxa-1-aza-spiro[4.4]non-1-yl)-5,6-dihydro-8H-7-oxa-2,4,4b,9-tetraaza-fluoren-3-yl]-pyrimidin-2-ylamine] | 320 |
| CC1(C)OCCn2c1nc1c(N3CCCC3)nc(-c3cnc(N)nc3)nc12 [Example 18, 5-(8,8-Dimethyl-1-pyrrolidin-1-yl-5,6-dihydro-8H-7-oxa-2,4,4b,9-tetraaza-fluoren-3-yl)-pyrimidin-2-ylamine] | 402 |
| Cc1n[nH]c2ncc(-c3nc(N4CC5CC4C5)c4nc5n(c4n3)CCOC5(C)C)cc12 [Example 19, 1-(2-Aza-bicyclo[2.1.1]hex-2-yl)-8,8-dimethyl-3-(3-methyl-1H-pyrazolo[3,4-b]pyridin-5-yl)-5,6-dihydro-8H-7-oxa-2,4,4b,9-tetraaza-fluorene] | 493 |
| CCc1n[nH]c2ncc(-c3nc(N4CC5CC4C5)c4nc5n(c4n3)CCOC5(C)C)cc12 [Example 20, 1-(2-Aza-bicyclo[2.1.1]hex-2-yl)-3-(3-ethyl-1H-pyrazolo[3,4-b]pyridin-5-yl)-8,8-dimethyl-5,6-dihydro-8H-7-oxa-2,4,4b,9-tetraaza-fluorene] | 161 |
| CCOc1cc(-c2nc(N3CC4CC3C4)c3nc4n(c3n2)CCOC4(C)C)cnc1N [Example 21, 5-[1-(2-Aza-bicyclo[2.1.1]hex-2-yl)-8,8-dimethyl-5,6-dihydro-8H-7-oxa-2,4,4b,9-tetraaza-fluoren-3-yl]-3-ethoxy-pyridin-2-ylamine] | 279 |
| CC(C)Oc1cc(-c2nc(N3CC4CC3C4)c3nc4n(c3n2)CCOC4(C)C)cnc1N [Example 22, 5-[1-(2-Aza-bicyclo[2.1.1]hex-2-yl)-8,8-dimethyl-5,6-dihydro-8H-7-oxa-2,4,4b,9-tetraaza-fluoren-3-yl]-3-isopropoxy-pyridin-2-ylamine] | 406 |
| CC1(C)OCCn2c1nc1c(N3CC4CC3C4)nc(-c3cnc4[nH]ccc4c3)nc12 [Example 23, 1-(2-Aza-bicyclo[2.1.1]hex-2-yl)-8,8-dimethyl-3-(1H-pyrrolo[2,3-b]pyridin-5-yl)-5,6-dihydro-8H-7-oxa-2,4,4b,9-tetraaza-fluorene] | 57.7 |
| CCC1CCCN1c1nc(-c2cnc(N)nc2)nc2c1nc1n2CCOC1(C)C (stereo not drawn) [Example 24, 5-[1-(2-Ethyl-pyrrolidin-1-yl)-8,8-dimethyl-5,6-dihydro-8H-7-oxa-2,4,4b,9-tetraaza-fluoren-3-yl]-pyrimidin-2-ylamine] | 294 |
